Reference: publication PMC7280082 (Acta Pharmaceutica Sinica. B, 2019)

Experiments:
[1] = Cytotoxicity in mock-infected MT-4 cell cultures, MTT method; conditions: human, mock-infected MT-4 cells
[2] = target: WT HIV-1 RT (Human immunodeficiency virus type 1 group M subtype B, UniProt P03366); assay: Recombinant HIV-1 RT inhibitory assay; type: biochemical
[3] = system: HIV-1 E138K mutant strain; assay: microbe, parasite or virus in culture; type: cell-based; conditions: for SI E138K: CC50/EC50; for EC50: Human immunodeficiency virus 1, MT4, read-out: EC50 E138K; for RF E138K: ratio of EC50 (resistant viral strain)/EC50 (wild-type viral strain)
[4] = system: HIV-1 Y181C mutant strain; assay: microbe, parasite or virus in culture; type: cell-based; conditions: for SI Y181C: CC50/EC50; for EC50: Human immunodeficiency virus 1, MT4, read-out: EC50 Y181C; for RF Y181C: ratio of EC50 (resistant viral strain)/EC50 (wild-type viral strain)
[5] = system: WT HIV-1 (IIIB); assay: microbe, parasite or virus in culture; type: cell-based; conditions: for EC50: Human immunodeficiency virus 1, IIIB, MT4, read-out: EC50 IIIB; for SI IIIB: ratio of CC50/EC50
[6] = system: HIV-1 L100I mutant strain; assay: microbe, parasite or virus in culture; type: cell-based; conditions: for SI L100I: CC50/EC50; for EC50: Human immunodeficiency virus 1, MT4, read-out: EC50 L100I; for RF L100I: ratio of EC50 (resistant viral strain)/EC50 (wild-type viral strain)
[7] = system: HIV-2 strain (ROD); assay: Anti-HIV-2; type: cell-based; conditions: for EC50: Human immunodeficiency virus 2, MT4, read-out: EC50 ROD; for SI ROD: ratio of CC50/EC50
[8] = system: HIV-1 RES056 (K103N + Y181C) double-mutant strain; assay: microbe, parasite or virus in culture; type: cell-based; conditions: for SI RES056: CC50/EC50; for EC50: Human immunodeficiency virus 1, MT4, read-out: EC50 RES056; for RF RES056: ratio of EC50 (resistant viral strain)/EC50 (wild-type viral strain)
[9] = system: HIV-1 F227L + V106A double-mutant strain; assay: microbe, parasite or virus in culture; type: cell-based; conditions: for SI F227L + V106A: CC50/EC50; for EC50: Human immunodeficiency virus 1, MT4, read-out: EC50 F227L + V106A; for RF F227L + V106A: ratio of EC50 (resistant viral strain)/EC50 (wild-type viral strain)
[10] = system: HIV-1 Y188L mutant strain; assay: microbe, parasite or virus in culture; type: cell-based; conditions: for SI Y188L: CC50/EC50; for EC50: Human immunodeficiency virus 1, MT4, read-out: EC50 Y188L; for RF Y188L: ratio of EC50 (resistant viral strain)/EC50 (wild-type viral strain)
[11] = system: HIV-1 K103N mutant strain; assay: microbe, parasite or virus in culture; type: cell-based; conditions: for SI K103N: CC50/EC50; for EC50: Human immunodeficiency virus 1, MT4, read-out: EC50 K103N; for RF K103N: ratio of EC50 (resistant viral strain)/EC50 (wild-type viral strain)

Cc1cc(-c2ccoc2)cc(C)c1Oc1nc(NC2CCN(Cc3ccc(S(N)(=O)=O)cc3)CC2)nc2ccsc12 [Compound 13, 4-((4-((4-(4-(Furan-3-yl)-2,6-dimethylphenoxy)thieno[3,2-d]pyrimidin-2-yl)amino)piperidin-1-yl)methyl)benzenesulfonamide]
CC50 at 5 days [1]: 15600 ± 4970 nM | IC50 [2]: 265 ± 59 nM | SI E138K [3]: 81 | EC50 [3]: 193 ± 14.8 nM | RF E138K [3]: 3.0 | SI Y181C [4]: 79 | EC50 [4]: 197 ± 16.1 nM | RF Y181C [4]: 3.1 | EC50 [5]: 63.6 ± 11.4 nM | SI IIIB [5]: 246 | SI L100I [6]: 84 | EC50 [6]: 186 ± 29.4 nM | RF L100I [6]: 2.9 | EC50 [7]: 6800 ± 1220 nM | SI ROD [7]: 2 | SI RES056 [8]: 13 | EC50 [8]: 1190 ± 184 nM | RF RES056 [8]: 18.8 | SI F227L + V106A [9]: 44 | EC50 [9]: 358 ± 18.4 nM | RF F227L + V106A [9]: 5.6 | SI Y188L [10]: 117 | EC50 [10]: 133 ± 3.35 nM | RF Y188L [10]: 2.1 | SI K103N [11]: 249 | EC50 [11]: 62.9 ± 10.4 nM | RF K103N [11]: 1.0

Cc1cc(-c2ccoc2)cc(C)c1Oc1nc(NC2CCN(Cc3ccc(C(N)=O)cc3)CC2)nc2ccsc12 [Compound 14, 4-((4-((4-(4-(Furan-3-yl)-2,6-dimethylphenoxy)thieno[3,2-d]pyrimidin-2-yl)amino)piperidin-1-yl)methyl)benzamide]
CC50 at 5 days [1]: 15800 ± 7040 nM | IC50 [2]: 249 ± 1 nM | SI E138K [3]: 89 | EC50 [3]: 177 ± 2.93 nM | RF E138K [3]: 3.1 | SI Y181C [4]: 88 | EC50 [4]: 180 ± 33.4 nM | RF Y181C [4]: 3.1 | EC50 [5]: 57.5 ± 12.7 nM | SI IIIB [5]: 275 | SI L100I [6]: 60 | EC50 [6]: 262 ± 75 nM | RF L100I [6]: 4.6 | EC50 [7]: 3180 ± 832 nM | SI ROD [7]: 5 | SI RES056 [8]: 19 | EC50 [8]: 813 ± 177 nM | RF RES056 [8]: 14.1 | SI F227L + V106A [9]: 30 | EC50 [9]: 525 ± 21.1 nM | RF F227L + V106A [9]: 9.1 | SI Y188L [10]: 71 | EC50 [10]: 222 ± 30.5 nM | RF Y188L [10]: 3.9 | SI K103N [11]: 212 | EC50 [11]: 74.8 ± 2.93 nM | RF K103N [11]: 1.3

Cc1cc(-c2cccs2)cc(C)c1Oc1nc(NC2CCN(Cc3ccc(S(N)(=O)=O)cc3)CC2)nc2ccsc12 [Compound 15, 4-((4-((4-(2,6-Dimethyl-4-(thiophen-2-yl)phenoxy)thieno[3,2-d]pyrimidin-2-yl)amino)piperidin-1-yl)methyl)benzenesulfonamide]
CC50 at 5 days [1]: 21500 ± 890 nM | IC50 [2]: 227 ± 46 nM | SI E138K [3]: 173 | EC50 [3]: 124 ± 88.7 nM | RF E138K [3]: 2.5 | SI Y181C [4]: 235 | EC50 [4]: 91.7 ± 18.2 nM | RF Y181C [4]: 1.9 | EC50 [5]: 49.5 ± 14.8 nM | SI IIIB [5]: 435 | SI L100I [6]: 220 | EC50 [6]: 97.9 ± 62.4 nM | RF L100I [6]: 2.0 | EC50 [7]: 5110 ± 1710 nM | SI ROD [7]: 4 | SI RES056 [8]: 22 | EC50 [8]: 999 ± 151 nM | RF RES056 [8]: 20.2 | SI F227L + V106A [9]: 380 | EC50 [9]: 56.7 ± 16.2 nM | RF F227L + V106A [9]: 1.1 | SI Y188L [10]: 203 | EC50 [10]: 106 ± 43.6 nM | RF Y188L [10]: 2.1 | SI K103N [11]: 932 | EC50 [11]: 23.1 ± 2.56 nM | RF K103N [11]: 0.5
